Data set [1] relates to MX1 (ER−, erbB2−) breast carcinoma. The data set is described as follows: MX1 human breast carcinoma xenograft, tumor growth delay (Example 11). The format is in vivo, female athymic nude mice. As to conditions: alone. How it is done: The compound was administered orally on a continuous daily regimen in female athymic nude mice bearing established sc-implanted xenografts.
Background: A xenograft is tissue or cells of one species grown in another, often human tumour cells in immunodeficient mice.

In another data set the test system is BT474 tumor. The data set is described as follows: BT474 model, tumor growth delay (Example 9). As to conditions: Groups 3, 4: 30 mg/kg, po, qd to end. The format is in vivo, Female SCID mice.
For another data set, the target named is HER2 [ErbB2] (Homo sapiens, UniProt P04626). To be noted: cited from earlier work.
HER2 [ErbB2], sequence (P04626 23-1255): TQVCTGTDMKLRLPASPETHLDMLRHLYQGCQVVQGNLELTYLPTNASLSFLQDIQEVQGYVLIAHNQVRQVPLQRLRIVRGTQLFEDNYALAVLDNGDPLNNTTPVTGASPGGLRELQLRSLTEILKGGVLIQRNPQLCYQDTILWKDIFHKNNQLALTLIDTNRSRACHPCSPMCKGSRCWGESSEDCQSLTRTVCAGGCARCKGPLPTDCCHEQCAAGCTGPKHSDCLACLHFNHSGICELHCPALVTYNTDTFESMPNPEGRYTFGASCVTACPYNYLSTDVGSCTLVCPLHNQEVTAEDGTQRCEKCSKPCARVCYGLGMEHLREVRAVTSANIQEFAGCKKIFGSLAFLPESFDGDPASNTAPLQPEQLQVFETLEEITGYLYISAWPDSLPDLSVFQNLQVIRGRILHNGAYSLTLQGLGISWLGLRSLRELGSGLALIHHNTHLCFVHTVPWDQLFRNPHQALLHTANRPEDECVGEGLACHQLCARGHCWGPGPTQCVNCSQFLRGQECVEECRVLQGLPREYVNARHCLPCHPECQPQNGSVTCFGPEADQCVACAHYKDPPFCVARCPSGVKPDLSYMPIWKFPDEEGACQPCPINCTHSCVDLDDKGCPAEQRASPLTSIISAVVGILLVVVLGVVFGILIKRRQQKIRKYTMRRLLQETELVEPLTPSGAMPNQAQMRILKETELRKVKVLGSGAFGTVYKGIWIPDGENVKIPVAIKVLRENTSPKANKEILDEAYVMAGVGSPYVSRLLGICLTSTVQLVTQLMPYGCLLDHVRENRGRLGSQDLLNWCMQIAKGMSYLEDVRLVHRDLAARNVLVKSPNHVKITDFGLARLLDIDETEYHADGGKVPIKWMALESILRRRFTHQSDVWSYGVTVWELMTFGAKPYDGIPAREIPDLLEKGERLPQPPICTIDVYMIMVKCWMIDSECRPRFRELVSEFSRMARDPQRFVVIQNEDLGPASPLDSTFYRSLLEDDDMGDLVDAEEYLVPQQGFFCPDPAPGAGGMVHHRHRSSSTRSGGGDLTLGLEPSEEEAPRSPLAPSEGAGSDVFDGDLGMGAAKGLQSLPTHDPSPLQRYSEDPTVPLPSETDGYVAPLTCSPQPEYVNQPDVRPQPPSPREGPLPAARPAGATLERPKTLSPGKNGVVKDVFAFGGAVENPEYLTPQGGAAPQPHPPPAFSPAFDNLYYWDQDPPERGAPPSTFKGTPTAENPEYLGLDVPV
The test system of data set [2] is human breast cancer cells (SK-BR-3). As to the kind of experiment: SK-BR-3 model, tumor volume. The format is in vivo, nude mice. As to conditions: COX-2 inhibitor in the diet, trastuzumab intravenously.
Procedure: Mice are injected subcutaneously in the left paw (1×10^6 tumor cells suspended in 30% Matrigel) and tumor volume is evaluated using a phlethysmometer twice a week for 30-60 days. Implantation of human breast cancer cells (SK-BR-3) into nude mice produces tumors that will reach 0.6-2 ml between 30-50 days. […] The data is expressed as the mean+/−SEM. Student's and Mann-Whitney tests are used to assess differences between means using the InStat software package.
The efficacy of both agents are determined by measuring tumor volume.
B. In a second assay, mice injected with SK-BR-3 cancer cells are then treated with 5-FU on days 12 through 15. […] The efficacy of both agents are determined by measuring tumor volume.
Data set [3] in a line: Oral pharmacokinetics in monkeys. The format is in vivo. To be noted: monkey, plasma, 5 mg/kg, read-out: elimination half life (t1/2) (converted). How it is done:
(§1) Peak plasma concentrations were achieved between 1 and 3 hours after a dose of 5 mg/kg.

The nature of the next data set: clinical. To be noted: human, in vivo. How it is done:
as §1

For data set [4] the following is noted: human, in vivo.
Data set [5] is described as follows: Oral pharmacokinetics in rodents. The format is in vivo, mice, rats. How it is done: as §1
Data set [6] can be described thus: Oral pharmacokinetics in dogs. The format is in vivo. To be noted: dog, plasma, 5 mg/kg, read-out: elimination half life (t1/2). How it is done:
as §1

Where [7] appears, read: third assay (C): 5-FU i.p. 50 mg/kg on days 14 through 17.

The Ki is the dissociation constant of the complex between target and ligand, obtained from inhibition or displacement.

The structures appear in SMILES notation.

Procedure for BT474 tumor: Female SCID mice were injected subcutaneously in the flank (1 mm^3 BT474 tumor) and tumor volume was evaluated using a caliper twice a week for up to 90 days, longer for responders. Upon reaching an average tumor size of 100-200 mg the treatment was begun. […] The endpoint for the study was when tumor volume reached 0.75 gins or 90 days, which ever came first.

Regarding `Nc1nc2[nH]cc(CCc3ccc(C(=O)N[C@@H](CCC(=O)[O-])C(=O)[O-])cc3)c2c(=O)[nH]1.[Na+].[Na+]` [pemetrexed], in data set [1], the “TGD (in words)” value is “no TGD”.
In the case of `Cc1ccc(-c2cc(C(F)(F)F)nn2-c2ccc(S(N)(=O)=O)cc2)cc1` [celecoxib], in the data set on BT474 tumor, the “% tumor growth delay” value is on record as −28% and the “Median Total Time to Endpoint” value stood at 27.5 days. In addition, in the data set on BT474 tumor (difference in median time to endpoint), the Difference from control is reported as −10.7.
In the case of `COCC(=O)NC/C=C/c1ccc2ncnc(Nc3ccc(Oc4ccc(C)nc4)c(C)c3)c2c1` [CP-724,714], the Ki on HER2 [ErbB2] is 7 nM.
`Cc1onc(-c2ccccc2)c1-c1ccc(S(N)(=O)=O)cc1` [valdecoxib]: in data set [2] (setting [7]), the “reduction in tumor volume” value is 69%.
On to `CCOc1ccc(-c2cc(C)cn2-c2ccc(S(N)(=O)=O)cc2)cc1`, for which the half-life in data set [3] is ~120 min; in “clinical”, 900 to 1080 min; in data set [5] (mouse, rat, plasma, po, 5 mg/kg, rodents, read-out: elimination half life (t1/2)), 240 to 300 min; in data set [6], 240 to 300 min. Moreover, the “gastric or duodenal toxicity” value in data set [4] is “no increase in gastric or duodenal toxicity compared to placebo”. Also, the Oral availability entry in data set [5] (rodent, compared with dogs and monkeys) is given as “greatest in rodent”.
For the compound `O=c1[nH]cc(F)c(=O)[nH]1` [5-FU], the “reduction in tumor volume” value in [2] (second assay (B): 5-FU i.p. 50 mg/kg on days 12-15) is reported as 61%; in [2] (setting [7]), 35%.

Values taken from US20110301169A1, “Therapies for Treating Cancer Using Combinations of COX-2 Inhibitors and Antimetabolites” (priority 2007, published 2011).
